Results: ChEMBL document CHEMBL1817626, “The structure-activity relationship of urea derivatives as anti-tuberculosis agents” (Bioorg Med Chem, 2011)
Converted amounts (≈) assume the structure as drawn.

Assays:
[1] = target: T1, Hydrolase, alpha/beta hydrolase fold family (Mycobacterium tuberculosis) (UniProt O69638); assay: Inhibition of Mycobacterium tuberculosis recombinant EphE expressed in Escherichia coli BL21 using CMNPC as substrate at 10 nM after 30 mins by fluorescent assay relative to control
T1 sequence (whole entry): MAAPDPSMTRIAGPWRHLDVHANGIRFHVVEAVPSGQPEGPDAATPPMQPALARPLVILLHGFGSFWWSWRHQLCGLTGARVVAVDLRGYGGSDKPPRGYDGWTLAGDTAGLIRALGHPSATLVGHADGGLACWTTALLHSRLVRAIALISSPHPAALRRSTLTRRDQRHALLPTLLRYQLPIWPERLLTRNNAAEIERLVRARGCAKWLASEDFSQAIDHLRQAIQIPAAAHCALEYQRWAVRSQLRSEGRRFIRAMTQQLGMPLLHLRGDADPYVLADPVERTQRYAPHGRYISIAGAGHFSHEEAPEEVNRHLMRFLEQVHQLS

[2] = target: T2, Bifunctional epoxide hydrolase 2 (Homo sapiens, UniProt P34913); assay: Inhibition of human recombinant soluble epoxide hydrolase using CMNPC as substrate after 10 mins by fluorescent assay
T2 sequence (P34913 whole entry): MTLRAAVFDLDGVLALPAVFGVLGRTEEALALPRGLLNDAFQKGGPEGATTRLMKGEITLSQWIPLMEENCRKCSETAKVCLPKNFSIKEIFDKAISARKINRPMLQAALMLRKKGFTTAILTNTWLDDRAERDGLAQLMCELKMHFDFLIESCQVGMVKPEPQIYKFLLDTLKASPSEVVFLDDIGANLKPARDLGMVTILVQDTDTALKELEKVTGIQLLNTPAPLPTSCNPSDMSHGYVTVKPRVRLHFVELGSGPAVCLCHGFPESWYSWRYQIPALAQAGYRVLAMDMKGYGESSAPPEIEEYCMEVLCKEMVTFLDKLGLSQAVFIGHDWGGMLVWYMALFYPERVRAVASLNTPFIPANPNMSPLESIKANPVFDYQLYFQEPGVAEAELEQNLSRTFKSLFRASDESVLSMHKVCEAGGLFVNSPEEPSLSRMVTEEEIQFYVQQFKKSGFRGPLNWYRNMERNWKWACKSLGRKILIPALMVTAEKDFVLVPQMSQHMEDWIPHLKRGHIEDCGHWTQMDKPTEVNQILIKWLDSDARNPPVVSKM

Enterococcus faecium = assay: Antibacterial activity against Enterococcus faecium; format: functional
Enterococcus faecalis = assay: Antibacterial activity against Enterococcus faecalis; format: functional
Staphylococcus aureus = assay: Antibacterial activity against Staphylococcus aureus; format: functional
Escherichia coli [3] = assay: Antibacterial activity against Escherichia coli […] TolC; format: functional
Escherichia coli [4] = assay: Antibacterial activity against Escherichia coli K12; format: functional; settings: K-12
Pseudomonas aeruginosa = assay: Antibacterial activity against Pseudomonas aeruginosa; format: functional
Klebsiella pneumoniae = assay: Antibacterial activity against Klebsiella pneumoniae; format: functional
Vero = assay: Cytotoxicity against african green monkey Vero cells after 72 hrs by MTT assay; format: cell-based; settings: Chlorocebus sabaeus
[5] = target: T3, Epoxide hydrolase B (Mycobacterium tuberculosis) (UniProt P95276); assay: Inhibition of Mycobacterium tuberculosis recombinant EphB expressed in Escherichia coli BL21 using CMNPC as substrate at 10 nM after 30 mins by fluorescent assay relative to control
T3 sequence (whole entry): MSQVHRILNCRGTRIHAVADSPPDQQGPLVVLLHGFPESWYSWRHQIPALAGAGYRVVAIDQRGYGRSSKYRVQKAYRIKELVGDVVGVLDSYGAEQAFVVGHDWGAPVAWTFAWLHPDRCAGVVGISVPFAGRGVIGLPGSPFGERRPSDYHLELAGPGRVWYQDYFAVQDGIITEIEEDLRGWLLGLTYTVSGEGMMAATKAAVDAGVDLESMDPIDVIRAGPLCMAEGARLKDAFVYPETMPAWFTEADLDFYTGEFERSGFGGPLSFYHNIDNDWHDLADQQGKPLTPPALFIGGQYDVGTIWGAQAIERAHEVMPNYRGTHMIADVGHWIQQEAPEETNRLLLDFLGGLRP

Bacillus anthracis = assay: microbe, parasite or virus in culture
[6] = system: Mycolicibacterium smegmatis; assay: microbe, parasite or virus in culture; settings: str. MC2 155, 168 h
[7] = system: Mycobacterium tuberculosis; assay: microbe, parasite or virus in culture; settings: H37Rv, 168 h

| Compound | inhibition [1] [%] | IC50 [2] [nM] | MIC (Enterococcus faecium) [µg/mL] | MIC (Enterococcus faecalis) [µg/mL] | MIC (Staphylococcus aureus) [µg/mL] | MIC (Escherichia coli [3]) [µg/mL] | MIC (Escherichia coli [4]) [µg/mL] | MIC (Pseudomonas aeruginosa) [µg/mL] | MIC (Klebsiella pneumoniae) [µg/mL] | IC50 (Vero) [µg/mL] | inhibition [5] [%] | MIC (Bacillus anthracis) [µg/mL] | MIC [6] [µg/mL] | MIC [7] [µg/mL] |
| --- | --- | --- | --- | --- | --- | --- | --- | --- | --- | --- | --- | --- | --- | --- |
| CC(C)(C)NC(=O)NC1C2CC3CC(C2)CC1C3 (stereo not given) | 55.4 | 24.2 | > 200 | > 200 | > 200 | > 200 | > 200 | > 200 | > 200 | 372 (≈ 1490 µM) | 20.7 | > 200 | > 200 | 12.5 (≈ 49.9 µM) |
| CCCNC(=O)NC1C2CC3CC(C2)CC1C3 (stereo not given) | 73.6 | 61.4 | > 200 | > 200 | > 200 | > 200 | > 200 | > 200 | > 200 | 171 (≈ 723 µM) | 51.9 | > 200 | 200 (≈ 846 µM) | 12.5 (≈ 52.9 µM) |
| O=C(NCc1cccc(Cl)c1)Nc1cccc(C(F)(F)F)c1F | 15.5 | 3.7 | > 200 | > 200 | > 200 | > 200 | > 200 | > 200 | > 200 | 193 (≈ 557 µM) | 16.6 | > 200 | > 200 | 1.6 (≈ 4.61 µM) |
| Cc1ccc(NC(=O)NCc2cccc(F)c2)cc1Cl | 19 | 16.6 | > 200 | > 200 | > 200 | > 200 | > 200 | > 200 | > 200 | 342 (≈ 1170 µM) | 18.6 | > 200 | > 200 | 6 (≈ 20.5 µM) |
| CC(C)NC(=O)NC1C2CC3CC(C2)CC1C3 (stereo not given) | 57.3 | 84.4 | > 200 | > 200 | > 200 | > 200 | > 200 | > 200 | > 200 | 23.4 (≈ 99 µM) | 27.2 | > 200 | > 100 | 50 (≈ 212 µM) |
| Cc1c(Cl)cccc1NC(=O)NC1C2CC3CC(C2)CC1C3 (stereo not given) | 58.3 | 4.5 | > 200 | > 200 | > 200 | > 200 | > 200 | > 200 | > 200 | 26.4 (≈ 82.8 µM) | 9.8 | > 200 | > 100 | 1.6 (≈ 5.02 µM) |
| Cc1ccc(NC(=O)NC(C)CCc2ccccc2)cc1Cl (stereo not given) | 97.4 | 15 | > 200 | > 200 | > 200 | > 200 | > 200 | > 200 | > 200 | > 400 | 81.9 | > 200 | 25 (≈ 78.9 µM) | 6 (≈ 18.9 µM) |
| CC(C)OCCNC(=O)NC12CC3CC(CC(C3)C1)C2 | 14.7 | 260 | > 200 | > 200 | > 200 | > 200 | > 200 | > 200 | > 200 | 6.4 (≈ 22.8 µM) | 11.9 | > 200 | 200 (≈ 713 µM) | 25 (≈ 89.2 µM) |
| O=C(NCC12CC3CC(CC(C3)C1)C2)Nc1ccc(F)c(F)c1F | 90.8 | 0.4 | > 200 | > 200 | 3.12 (≈ 9.22 µM) | 1.6 (≈ 4.73 µM) | > 200 | 50 (≈ 148 µM) | > 200 | 1.18 (≈ 3.49 µM) | 44.2 | 1.6 (≈ 4.73 µM) | 0.8 (≈ 2.36 µM) | 0.01 (≈ 0.0296 µM) |
| O=C(Nc1cccc(C(F)(F)F)c1F)NC1CCCCCCC1 | 56.3 | 0.4 | > 200 | > 200 | > 200 | 25 (≈ 75.2 µM) | > 200 | > 200 | > 200 | 25.3 (≈ 76.1 µM) | 17 | 3.12 (≈ 9.39 µM) | 0.4 (≈ 1.2 µM) | 0.8 (≈ 2.41 µM) |
